EC50 data for eight molecules are collected here from patent US8138215B2, “Hepatitis C virus inhibitors” (Bristol-Myers Squibb Company, priority 2009, dated 2012).

Read-outs that look alike come from different tables or passages of the source.

The test has as its system HCV 1b genotype. Briefly: HCV Replicon assay, 1b genotype. Conditions: Hepatitis C virus, HCV 1b genotype replicon. It counts as cell-based. Here is the method: An HCV Replicon assay was utilized in the present disclosure, and was prepared, conducted and validated as described in commonly owned PCT/US2006/022197 and in O'Boyle et. al. Antimicrob Agents Chemother. 2005 April; 49(4):1346-53. Assay methods incorporating luciferase reporters have also been used as described (Apath.com).
HCV-neo replicon cells and replicon cells containing mutations in the NS5A region were used to test the currently described family of compounds. The compounds were determined to have more than 10-fold less inhibitory activity on cells containing mutations than wild-type cells. Thus, the compounds of the present disclosure can be effective in inhibiting the function of the HCV NS5A protein and are understood to be as effective in combinations as previously described in application PCT/US2006/022197 and commonly owned WO/04014852. Further, the compounds of the present disclosure can be effective against the HCV 1b genotype. It should also be understood that the compounds of the present disclosure can inhibit multiple genotypes of HCV. […] In one embodiment, compounds of the present disclosure are active against the 1a, 1b, 2a, 2b, 3a, 4a, and 5a genotypes. EC50 values against HCV 1b are as follows: A=5 pM to 5 nM.

Where [1] appears, read: read-out: Range (EC50 values against HCV 1b).
The mark [2] stands for this setting: read-out: 1b EC50 (Effective 50% inhibitory concentration).

On to `O=C(N[C@@H](C(=O)N1CCC[C@H]1c1nc(-c2ccc(-c3ccc(-c4cnc([C@@H]5CCCN5C(=O)[C@H](NC(=O)OC5CC5)c5ccccc5)[nH]4)cc3)cc2)c[nH]1)c1ccccc1)OC1CC1` [Example CQ-3, Cyclopropyl ((1R)-2-((2S)-2-(4-(4′-(2-((2S)-1-((2R)-2-(((cyclopropyloxy)carbonyl)amino)-2-phenylacetyl)-2-pyrrolidinyl)-1H-imidazol-5-yl)-4-biphenylyl)-1H-imidazol-2-yl)-1-pyrrolidinyl)-2-oxo-1-phenylethyl)carbamate], for which the EC50 under setting [1] was in the range of 5 to 5000 pM.

In the case of `O=C(N[C@@H](C(=O)N1[C@@H]2C[C@@H]2C[C@H]1c1nc(-c2ccc(-c3ccc(-c4c[nH]c([C@@H]5C[C@H]6C[C@H]6N5C(=O)[C@H](NC(=O)OC5CCCC5)c5ccccc5)n4)cc3)cc2)c[nH]1)c1ccccc1)OC1CCCC1` [Example CQ-6, Cyclopentyl ((1R)-2-((1R,3S,5R)-3-(4-(4′-(2-((1R,3S,5R)-2-((2R)-2-(((cyclopentyloxy)carbonyl)amino)-2-phenylacetyl)-2-azabicyclo[3.1.0]hex-3-yl)-1H-imidazol-5-yl)-4-biphenylyl)-1H-imidazol-2-yl)-2-azabicyclo[3.1.0]hex-2-yl)-2-oxo-1-phenylethyl)carbamate], under setting [1], the EC50 is 5 to 5000 pM.

`O=C(N[C@@H](C(=O)N1CCC[C@H]1c1nc(-c2ccc(-c3ccc(-c4c[nH]c([C@@H]5CCCN5C(=O)[C@H](NC(=O)OC5CCCC5)c5ccccc5)n4)cc3)cc2)c[nH]1)c1ccccc1)OC1CCCC1` [Example CQ-2, Cyclopentyl ((1R)-2-((2S)-2-(4-(4′-(2-((2S)-1-((2R)-2-(((cyclopentyloxy)carbonyl)amino)-2-phenylacetyl)-2-pyrrolidinyl)-1H-imidazol-5-yl)-4-biphenylyl)-1H-imidazol-2-yl)-1-pyrrolidinyl)-2-oxo-1-phenylethyl)carbamate]: the EC50 by setting is: under setting [2], 12 pM; under setting [1], 5 to 5000 pM.

For `O=C(N[C@@H](C(=O)N1CCC[C@H]1c1nc(-c2ccc(-c3ccc(-c4cnc([C@@H]5CCCN5C(=O)[C@H](NC(=O)OC5CCCCC5)c5ccccc5)[nH]4)cc3)cc2)c[nH]1)c1ccccc1)OC1CCCCC1` [Example CQ-4, Cyclohexyl ((1R)-2-((2S)-2-(4-(4′-(2-((2S)-1-((2R)-2-(((cyclohexyloxy)carbonyl)amino)-2-phenylacetyl)-2-pyrrolidinyl)-1H-imidazol-5-yl)-4-biphenylyl)-1H-imidazol-2-yl)-1-pyrrolidinyl)-2-oxo-1-phenylethyl)carbamate], the EC50 under setting [1] lay within 5 to 5000 pM.

For `O=C(N[C@@H](C(=O)N1[C@@H]2C[C@@H]2C[C@H]1c1nc(-c2ccc(-c3ccc(-c4cnc([C@@H]5C[C@H]6C[C@H]6N5C(=O)[C@H](NC(=O)OC5CC5)c5ccccc5)[nH]4)cc3)cc2)c[nH]1)c1ccccc1)OC1CC1` [Example CQ-7, Cyclopropyl ((1R)-2-((1R,3S,5R)-3-(4-(4′-(2-((1R,3S,5R)-2-((2R)-2-(((cyclopropyloxy)carbonyl)amino)-2-phenylacetyl)-2-azabicyclo[3.1.0]hex-3-yl)-1H-imidazol-5-yl)-4-biphenylyl)-1H-imidazol-2-yl)-2-azabicyclo[3.1.0]hex-2-yl)-2-oxo-1-phenylethyl)carbamate], the EC50 runs as follows: under setting [2], 6.1 pM; under setting [1], 5 to 5000 pM.

For `O=C(N[C@@H](C(=O)N1CCC[C@H]1c1nc(-c2ccc(-c3ccc(-c4c[nH]c([C@@H]5CCCN5C(=O)[C@H](NC(=O)OC5CCC5)c5ccccc5)n4)cc3)cc2)c[nH]1)c1ccccc1)OC1CCC1` [Example CQ-1, Cyclobutyl ((1R)-2-((2S)-2-(4-(4′-(2-((2S)-1-((2R)-2-(((cyclobutyloxy)carbonyl)amino)-2-phenylacetyl)-2-pyrrolidinyl)-1H-imidazol-5-yl)-4-biphenylyl)-1H-imidazol-2-yl)-1-pyrrolidinyl)-2-oxo-1-phenylethyl)carbamate], the EC50 under setting [1] is 5 to 5000 pM.

`O=C(N[C@@H](C(=O)N1[C@@H]2C[C@@H]2C[C@H]1c1nc(-c2ccc(-c3ccc(-c4c[nH]c([C@@H]5C[C@H]6C[C@H]6N5C(=O)[C@H](NC(=O)OC5CCC5)c5ccccc5)n4)cc3)cc2)c[nH]1)c1ccccc1)OC1CCC1` [Example CQ-5, Cyclobutyl ((1R)-2-((1R,3S,5R)-3-(4-(4′-(2-((1R,3S,5R)-2-((2R)-2-(((cyclobutyloxy)carbonyl)amino)-2-phenylacetyl)-2-azabicyclo[3.1.0]hex-3-yl)-1H-imidazol-5-yl)-4-biphenylyl)-1H-imidazol-2-yl)-2-azabicyclo[3.1.0]hex-2-yl)-2-oxo-1-phenylethyl)carbamate]: under setting [1], the EC50 is 5 to 5000 pM.

Consider `O=C(N[C@@H](C(=O)N1[C@@H]2C[C@@H]2C[C@H]1c1nc(-c2ccc(-c3ccc(-c4cnc([C@@H]5C[C@H]6C[C@H]6N5C(=O)[C@H](NC(=O)OC5CCCCC5)c5ccccc5)[nH]4)cc3)cc2)c[nH]1)c1ccccc1)OC1CCCCC1` [Example CQ-8, Cyclohexyl ((1R)-2-((1R,3S,5R)-3-(4-(4′-(2-((1R,3S,5R)-2-((2R)-2-(((cyclohexyloxy)carbonyl)amino)-2-phenylacetyl)-2-azabicyclo[3.1.0]hex-3-yl)-1H-imidazol-5-yl)-4-biphenylyl)-1H-imidazol-2-yl)-2-azabicyclo[3.1.0]hex-2-yl)-2-oxo-1-phenylethyl)carbamate], for which the EC50 under setting [1] was in the range of 5 to 5000 pM.
